This is an account of results in ChEMBL document CHEMBL1201862, “PubChem BioAssay data set” (2004).

Test systems include A549; ACHN; BT-549; HL-60; HT-29; IGROV-1; M14; MDA-MB-231; NCI-H460; OVCAR-5; RXF 393; SK-MEL-28; SR; MDA-MB-435; NCI-H522; SF-268; T47D.
What all share (experiment): NCI anticancer screen, dose series, 48 h

SMILES strings stand for the structures.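 The compound was tested at five concentrations on cells cultured in 96-well plates, with a 48-hour exposure period. GI50 marks 50% less growth.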 Active and inactive are the calls of the source. Cut-off read from the data, not from the text of the source: active = GI50 up to about 1.1 µM and inactive = higher.

`CC(NC(=O)OC(C)(C)C)C(=O)NC(Cc1ccccc1)C(=O)NCC(=O)Oc1c(Cl)c(Cl)c(Cl)c(Cl)c1Cl` (configuration not stated): the GI50 was 19.5 µM (inactive) in the assay on A549; 25 µM (inactive) in the assay on ACHN; 23.5 µM (inactive) in the assay on BT-549; 24.7 µM (inactive) with HL-60; 23.7 µM (inactive) in the assay with HT-29; 22.8 µM (inactive) in the assay with IGROV-1. For the same molecule, the GI50 with M14 was 26.2 µM (inactive); in the assay with MDA-MB-231 it was 16.6 µM (inactive); with NCI-H460, 25.6 µM (inactive); in the assay with OVCAR-5 it was 19 µM (inactive); in the assay on RXF 393, 17.2 µM (inactive); with SK-MEL-28 it was 20.7 µM (inactive). In the assay with SR, the GI50 was 25 µM (inactive).
`COc1cc(NCc2ccc3nc(-c4ccccc4)c(N)nc3c2)cc(OC)c1OC`: the GI50 in the assay with A549 is 30.8 µM (inactive); in the assay on ACHN it was 29.4 µM (inactive); in the assay on HL-60 it was 25.6 µM (inactive); with HT-29, 32.9 µM (inactive); in the assay on IGROV-1, 43.6 µM (inactive); in the assay on M14 it was 18.4 µM (inactive). The GI50 in the assay with MDA-MB-231 is 36 µM (inactive); in the assay on MDA-MB-435, 22.3 µM (inactive); in the assay with NCI-H460 it was 31.4 µM (inactive); in the assay with NCI-H522, 23.7 µM (inactive); in the assay on OVCAR-5 it was > 100 µM (inactive); in the assay on RXF 393, 16 µM (inactive). In addition, the GI50 in the assay with SF-268 was 34.8 µM (inactive); with SK-MEL-28, 27.4 µM (inactive); in the assay with SR it was 37.8 µM (inactive); in the assay with T47D, 25.9 µM (inactive).
As for `COC(=O)CC1C2CC3C(C2=O)C13` (configuration not stated), the GI50 in the assay on A549 is > 100 µM (inactive); with ACHN it was > 100 µM (inactive); in the assay with HL-60, 33.6 µM (inactive); with HT-29, > 100 µM (inactive); in the assay with IGROV-1, > 100 µM (inactive); in the assay on M14, > 100 µM (inactive). The GI50 with MDA-MB-231, in the assay with MDA-MB-435, with NCI-H460, with NCI-H522, with OVCAR-5 and in the assay on RXF 393 was > 100 µM (inactive) in each case. The GI50 in the assay on SF-268, with SK-MEL-28, with SR and with T47D was > 100 µM (inactive) each time.
`O=C(/C=C/c1ccccc1)CSc1nc[nH]n1`: the GI50 in the assay with A549 was > 100 µM (inactive); in the assay with ACHN, > 100 µM (inactive); with BT-549, > 100 µM (inactive); with HL-60, 45.9 µM (inactive); with HT-29, 44.4 µM (inactive); in the assay with IGROV-1 it was > 100 µM (inactive). The GI50 is > 100 µM (inactive) in the assay on M14; 79.4 µM (inactive) in the assay with NCI-H460; 30.5 µM (inactive) in the assay with NCI-H522; > 100 µM (inactive) in the assay with OVCAR-5; > 100 µM (inactive) with RXF 393; > 100 µM (inactive) in the assay on SF-268. For the same molecule, the GI50 is 56.9 µM (inactive) with SK-MEL-28 and 62.1 µM (inactive) with SR.
Turning to `CCN(CC)CCN1CCN=C2c3cc(OC)ccc3Nc3c([N+](=O)[O-])ccc1c32`, the GI50 with A549 was 1.24 µM (inactive); in the assay with HL-60 it was 0.519 µM (active); in the assay on HT-29, 0.881 µM (active); in the assay with IGROV-1, 1.72 µM (inactive); with M14, 1 µM (active); in the assay with MDA-MB-231, 0.671 µM (active). Moreover, the GI50 in the assay on MDA-MB-435 is 1.28 µM (inactive); with RXF 393, 0.843 µM (active); in the assay with SF-268 it was 0.501 µM (active); in the assay with SK-MEL-28, 1 µM (active); in the assay with SR, 0.221 µM (active); in the assay with T47D, 5.65 µM (inactive).
With `COc1ccc2c(C)cc(=O)oc2c1OC`, the GI50 with A549, in the assay with ACHN, with HT-29, in the assay with IGROV-1, with M14 and with MDA-MB-231 was > 100 µM (inactive) in each case. The GI50 with MDA-MB-435, in the assay with OVCAR-5, in the assay with SF-268, in the assay on SK-MEL-28 and in the assay with SR was > 100 µM (inactive) in each case.
For the molecule `O=S(=O)(O)c1cc(/N=N/c2c(O)ccc3ccccc23)c2c(S(=O)(=O)O)cccc2c1`, the GI50 with A549, in the assay with ACHN, in the assay on BT-549, in the assay with HL-60, with HT-29 and with IGROV-1 was > 100 µM (inactive) each time. Further, the GI50 in the assay on M14, in the assay on MDA-MB-231, in the assay with MDA-MB-435, in the assay on NCI-H460, in the assay with NCI-H522 and in the assay on OVCAR-5 was > 100 µM (inactive) each time. For the same molecule, the GI50 in the assay on RXF 393, with SF-268, in the assay with SK-MEL-28 and in the assay with SR was > 100 µM (inactive) throughout.
In the case of `ClC1=C(Cl)C2OC3C=CCC3OC2C(Cl)=C1Cl` (configuration not stated), the GI50 in the assay with ACHN is 91 µM (inactive); in the assay with HL-60, 36.1 µM (inactive); in the assay on HT-29 it was 21.3 µM (inactive); in the assay with IGROV-1, > 100 µM (inactive); in the assay with M14, > 100 µM (inactive); in the assay on MDA-MB-231, > 100 µM (inactive). The GI50 in the assay with MDA-MB-435 was 56.9 µM (inactive); with NCI-H460 it was 40 µM (inactive); in the assay on NCI-H522, 32.2 µM (inactive); with OVCAR-5 it was > 100 µM (inactive); with RXF 393, 28.4 µM (inactive); in the assay with SF-268 it was 73.5 µM (inactive). In addition, the GI50 in the assay on SK-MEL-28 was > 100 µM (inactive); in the assay on SR, 35.3 µM (inactive); in the assay with T47D it was 2.47 µM (inactive).
As for `Cc1nc2ccc(Cl)cc2c2c1CCS2`, the GI50 in the assay with A549 is 67 µM (inactive); with ACHN, 45.1 µM (inactive); with HL-60, 27.2 µM (inactive); in the assay on HT-29, 41.8 µM (inactive); in the assay on IGROV-1, 47.8 µM (inactive); in the assay with M14, 71.3 µM (inactive). Moreover, the GI50 is 49.2 µM (inactive) with MDA-MB-231; 68.5 µM (inactive) with MDA-MB-435; 52.2 µM (inactive) in the assay with NCI-H460; > 100 µM (inactive) with NCI-H522; > 100 µM (inactive) with OVCAR-5; 47.5 µM (inactive) in the assay with RXF 393. In addition, the GI50 in the assay with SF-268 is 56.5 µM (inactive); in the assay on SK-MEL-28, > 100 µM (inactive); in the assay on SR, 40.9 µM (inactive); with T47D it was > 100 µM (inactive).
On to `CCN(CC)C(=S)N/N=C(/c1ccccc1)c1ccccn1`, for which the GI50 in the assay on A549 was 0.349 µM (active); in the assay on ACHN, 0.264 µM (active); in the assay with BT-549, 0.471 µM (active); in the assay with HL-60, 0.264 µM (active); in the assay on HT-29, < 0.0246 µM (active); in the assay on IGROV-1, 0.195 µM (active). Besides, the GI50 in the assay with M14 was 0.0618 µM (active); in the assay with MDA-MB-231, 0.0265 µM (active); in the assay with MDA-MB-435, 0.705 µM (active); with NCI-H460 it was 0.0783 µM (active); in the assay on NCI-H522, 0.0984 µM (active); in the assay with OVCAR-5, 0.238 µM (active). Further, the GI50 in the assay with RXF 393 was 0.277 µM (active); in the assay with SF-268, 0.0256 µM (active); with SK-MEL-28, 0.767 µM (active); with SR, 0.106 µM (active).
Take `COc1cc(Br)cc2cc(-c3cn4c(n3)sc3ccccc34)c(=O)oc12`: the GI50 is 36.5 µM (inactive) in the assay with A549; 32 µM (inactive) with ACHN; 24.3 µM (inactive) in the assay on BT-549; 15.6 µM (inactive) in the assay with HL-60; 29.5 µM (inactive) in the assay with HT-29; 14.7 µM (inactive) in the assay on IGROV-1. Besides, the GI50 with M14 is 24.4 µM (inactive); in the assay with MDA-MB-231, 21.2 µM (inactive); in the assay on MDA-MB-435, 24.4 µM (inactive); in the assay with NCI-H460, 33.7 µM (inactive); with NCI-H522 it was 14.5 µM (inactive); in the assay on OVCAR-5, 39 µM (inactive). For the same molecule, the GI50 in the assay on SF-268 was 20 µM (inactive); in the assay on SR it was 21.6 µM (inactive).
On to `CCCC1(CCC)c2cc(/C=N\O)ccc2-c2ccc(-c3ccc(C(C)(C)C)cc3)cc21`, for which the GI50 in the assay with A549 is 53.7 µM (inactive); with ACHN it was 41.9 µM (inactive); in the assay on HL-60, 20.7 µM (inactive); in the assay with HT-29, > 100 µM (inactive); in the assay on IGROV-1, 61.9 µM (inactive); in the assay on M14 it was 50.2 µM (inactive). In addition, the GI50 in the assay with MDA-MB-231 is 19.5 µM (inactive); in the assay on NCI-H460, 38.5 µM (inactive); in the assay with OVCAR-5 it was > 100 µM (inactive); with SF-268 it was 56 µM (inactive); in the assay with SK-MEL-28, 26.7 µM (inactive); with SR, 25.9 µM (inactive). For the same molecule, in the assay on T47D, the GI50 is 57.5 µM (inactive).
For `Nc1ccc2c(c1)Nc1c3ccccc3nc3cccc-2c13`, the GI50 with A549 is 1.36 µM (inactive); in the assay with ACHN, 1.43 µM (inactive); in the assay on BT-549 it was 3.6 µM (inactive); in the assay with HL-60, 3.66 µM (inactive); in the assay on HT-29 it was 1.18 µM (inactive); in the assay with IGROV-1, 1.25 µM (inactive). Also, the GI50 is 2.12 µM (inactive) in the assay on M14; 1.35 µM (inactive) in the assay with MDA-MB-231; 1.81 µM (inactive) in the assay on MDA-MB-435; 1.02 µM (active) in the assay with NCI-H460; 1.55 µM (inactive) in the assay with NCI-H522; 1.77 µM (inactive) with OVCAR-5. Moreover, the GI50 was 1.64 µM (inactive) in the assay with RXF 393, 1.73 µM (inactive) in the assay on SF-268, 1.99 µM (inactive) in the assay with SK-MEL-28 and 0.281 µM (active) with SR.
For the molecule `OC[C@H]1O[C@@H](Oc2cc(O)cc(/C=C/c3ccc(O)cc3)c2)[C@H](O)[C@@H](O)[C@@H]1O` [PICEID], the GI50 in the assay with A549, with ACHN, in the assay with BT-549, with HL-60, in the assay with HT-29 and in the assay with IGROV-1 was > 100 µM (inactive) each time. Further, the GI50 in the assay with MDA-MB-231, in the assay with MDA-MB-435, in the assay with NCI-H460, in the assay on NCI-H522, with OVCAR-5 and in the assay with RXF 393 was > 100 µM (inactive) each time. Besides, the GI50 with SK-MEL-28 and with SR was > 100 µM (inactive) in each case.
